Results published in paper PMC7158045 (BMC Plant Biology, 2020).
Counter-ions that a name gives are not always drawn. Like-named read-outs stand apart in the source and are kept apart here.

Assays:
Assay in all cases: biochemical
[1] = target: T1, ZmDRIK1 (DROUGHT RESPONSIVE INACTIVE KINASE 1), kinase domain (Zea mays, UniProt C0P4K9)
T1 construct: gene ZEAMMB73_Zm00001d028770; ZmDRIK1-KD R187-S514 (kinase domain)
T1 sequence (C0P4K9 187-514): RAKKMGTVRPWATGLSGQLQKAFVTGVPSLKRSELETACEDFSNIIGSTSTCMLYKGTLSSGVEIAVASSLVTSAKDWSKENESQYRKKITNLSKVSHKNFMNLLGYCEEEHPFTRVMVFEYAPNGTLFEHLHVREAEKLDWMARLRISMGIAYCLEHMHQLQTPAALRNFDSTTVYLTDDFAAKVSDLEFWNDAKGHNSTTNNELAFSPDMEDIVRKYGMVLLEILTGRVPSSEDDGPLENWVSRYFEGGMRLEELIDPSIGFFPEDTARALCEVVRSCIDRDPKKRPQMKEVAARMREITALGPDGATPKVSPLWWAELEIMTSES

[2] = target: T2, ZmDRIK1-R187-P492 (Zea mays, UniProt C0P4K9)
T2 construct: kinase domain, R187-P492
T2 sequence (C0P4K9 1-514): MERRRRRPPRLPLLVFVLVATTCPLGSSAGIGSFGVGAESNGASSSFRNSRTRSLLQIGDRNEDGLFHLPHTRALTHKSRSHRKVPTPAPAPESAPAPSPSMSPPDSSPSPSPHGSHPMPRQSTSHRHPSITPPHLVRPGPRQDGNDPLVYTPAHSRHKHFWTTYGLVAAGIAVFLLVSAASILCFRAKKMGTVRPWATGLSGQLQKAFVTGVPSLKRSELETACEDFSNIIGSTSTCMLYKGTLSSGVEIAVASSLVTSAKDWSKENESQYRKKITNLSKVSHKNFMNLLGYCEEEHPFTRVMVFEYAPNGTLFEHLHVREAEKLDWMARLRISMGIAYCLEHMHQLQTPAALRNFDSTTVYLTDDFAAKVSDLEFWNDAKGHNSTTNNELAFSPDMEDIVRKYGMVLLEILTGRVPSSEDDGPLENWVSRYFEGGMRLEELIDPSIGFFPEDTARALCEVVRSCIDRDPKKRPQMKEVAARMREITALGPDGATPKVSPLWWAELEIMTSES

[3] = target: T3, ZmDRIK1-K217-P492 (Zea mays, UniProt C0P4K9)
T3 construct: kinase domain, K217-P492
T3 sequence (C0P4K9 1-514): T2 sequence (C0P4K9 1-514)

[4] = target: T4, ZmDRIK1-K217-S514 (Zea mays, UniProt C0P4K9)
T4 construct: kinase domain, K217-S514
T4 sequence (C0P4K9 1-514): T2 sequence (C0P4K9 1-514)

[5] = read-out: dTm B, sheet ZmDRIK1-R187-S514;, DSF, Boltzmann fit, 0.1% DMSO
[6] = read-out: dTm B, DSF, Boltzmann fit, 0.1% DMSO
[7] = read-out: dTm B, sheet ZmDRIK1-K217-P492;, DSF, Boltzmann fit, 0.1% DMSO
[8] = read-out: dTm B, sheet ZmDRIK1-K217-S514;, DSF, Boltzmann fit, 0.1% DMSO

Row | SMILES | ΔTm at 10 µM [1, 5] [°C] | ΔTm at 10 µM [2, 6] [°C] | ΔTm at 10 µM [3, 7] [°C] | ΔTm at 10 µM [4, 8] [°C] | ΔTm at 10 µM ([1]; read-out: dTm B) [°C] | ΔTm at 10 µM ([2]; read-out: dTm B) [°C] | ΔTm at 10 µM ([3]; read-out: dTm B) [°C] | ΔTm at 10 µM ([4]; read-out: dTm B) [°C]
1 | CCc1cccc(CC)c1NC(=O)N1Cc2[nH]nc(NC(=O)c3ccc(N4CCN(C)CC4)cc3)c2C1 [PHA-680632] | -0.776 | -0.18 | -0.924 | -0.247 |  |  |  | 
2 | COCC(=O)NC/C=C/c1ccc2ncnc(Nc3ccc(Oc4ccc(C)nc4)c(C)c3)c2c1 [CP-724714] | -0.904 | -0.193 | -1.14 | -0.357 |  |  |  | 
3 | Cc1c(F)cc(C(=O)NC2CC2)cc1-c1ccc(C(=O)NCC(C)(C)C)cn1 [Losmapimod (GW856553X)] | -0.594 | -0.242 | -0.577 | -0.464 |  |  |  | 
4 | N#Cc1ccc2[nH]c(O)c(-c3ccc(CN4CCOCC4)cn3)c2c1 [AZD1080] | -1.22 | -0.506 | -0.787 | -0.298 |  |  |  | 
5 | CCCCCCCCc1ccc(CCC(N)(CO)CO)cc1 [Fingolimod (FTY720) HCl] | -0.542 | -0.447 | -1.47 | -0.608 |  |  |  | 
6 | Cn1cc(C2=C(c3cn(C4CCN(Cc5ccccn5)CC4)c4ccccc34)C(=O)NC2=O)c2ccccc21 [Enzastaurin (LY317615)] | -0.678 | -0.261 | -1.33 | -0.275 |  |  |  | 
7 | Cn1cc(-c2cnn3c(N)c(Br)c([C@@H]4CCCNC4)nc23)cn1 [MK-8776 (SCH 900776)] | -0.736 | -0.226 | -0.951 | -0.293 |  |  |  | 
8 | CC(C)(C)c1cc(C=C(C#N)C#N)cc(Br)c1O [AG-1024] | -0.562 | -0.615 | -1.09 | -0.233 |  |  |  | 
9 | N#Cc1c(O)c2c(-c3ccc(-c4ccccc4O)cc3)csc2[nH]c1=O [A-769662] | -1.11 | -0.292 | -1.24 | -0.453 |  |  |  | 
10 | C[C@H](NC(=O)/C(C#N)=C/c1cccc(Br)n1)c1ccccc1 [WP1066] | -3.39 | -2 | -4.29 | -2.48 |  |  |  | 
11 | CC(=O)Nc1nc(C)c(-c2ccc(Cl)c(S(=O)(=O)NCCO)c2)s1 [PIK-93] | -1.08 | -0.0815 | -0.556 | -0.175 |  |  |  | 
12 | N#C/C(=C\c1ccc(O)c(O)c1)C(=O)NCc1ccccc1 [AG-490 (Tyrphostin B42)] | -1.15 | -0.394 | -0.722 | -0.507 |  |  |  | 
13 | C#Cc1cccc(Nc2ncnc3cc(OCCOC)c(OCCOC)cc23)c1 [Erlotinib HCl (OSI-744)] | -0.54 | -0.278 | -1.09 | -0.264 |  |  |  | 
14 | C[C@]1(O)C[C@@H](c2nc(-c3ccc4ccc(-c5ccccc5)nc4c3)c3c(N)nccn32)C1 [OSI-906 (Linsitinib)] | -0.97 | -0.547 | -0.53 | -0.681 |  |  |  | 
15 | CCN1/C(=C/C(C)=O)Sc2ccc(OC)cc21 [TG003] | -0.488 | -0.291 | -1.11 | -0.33 |  |  |  | 
16 | C[C@@H]1COCCN1c1cc(C2(S(C)(=O)=O)CC2)nc(-c2cccc3[nH]ccc23)n1 [AZ20] | -0.953 | -0.0341 | -0.913 | -0.493 |  |  |  | 
17 | C=CC(=O)Nc1cccc(Sc2nc(Nc3ccc(N4CCN(C)CC4)cc3)ncc2Cl)c1 [WZ8040] | -0.927 | -0.275 | -0.667 | -0.291 |  |  |  | 
18 | O=c1ncn2nc(Sc3ccc(F)cc3F)ccc2c1-c1c(Cl)cccc1Cl [VX-745] | -0.881 | -0.394 | -1.03 | -0.414 |  |  |  | 

Row | SMILES | ΔTm at 10 µM [1, 5] [°C] | ΔTm at 10 µM [2, 6] [°C] | ΔTm at 10 µM [3, 7] [°C] | ΔTm at 10 µM [4, 8] [°C] | ΔTm at 10 µM ([1]; read-out: dTm B) [°C] | ΔTm at 10 µM ([2]; read-out: dTm B) [°C] | ΔTm at 10 µM ([3]; read-out: dTm B) [°C] | ΔTm at 10 µM ([4]; read-out: dTm B) [°C]
19 | COC[C@H]1OC(=O)c2coc3c2[C@@]1(C)C1=C(C3=O)[C@@H]2CCC(=O)[C@@]2(C)C[C@H]1OC(C)=O [Wortmannin] | -0.735 | -0.289 | -1.08 | -0.299 |  |  |  | 
20 | O=C(Nc1c[nH]nc1-c1nc2ccc(CN3CCOCC3)cc2[nH]1)NC1CC1 [AT9283] | -0.914 | -0.23 | -0.742 | -0.536 |  |  |  | 
21 | CCNC(=O)Nc1ccc(-c2nc3c(c(N4CCOC[C@@H]4C)n2)CCN(C2COC2)C3)cc1 [GDC-0349] | -0.899 | -0.218 | -0.749 | -0.392 |  |  |  | 
22 | Cc1cnc(-c2cnc(NCCNc3ccc(C#N)cn3)nc2-c2ccc(Cl)cc2Cl)[nH]1 [CHIR-99021 (CT99021) HCl] | -0.639 | -0.404 | -0.928 | -0.494 |  |  |  | 
23 | CNc1nc(Nc2cn(C(C)(C)C#N)nc2C)ncc1C(F)(F)F [GNE-0877] | -0.833 | -0.575 | -0.848 | -0.602 |  |  |  | 
24 | C=CC(=O)Nc1ccc2ncnc(Nc3cccc(Br)c3)c2c1 [PD168393] | -0.108 | 0.724 | -0.0923 | 0.721 |  |  |  | 
25 | NC(=O)c1cccc(-c2cc(Nc3ccc(OC(F)(F)F)cc3)ncn2)c1 [GNF-2] | -0.138 | -7.74 | -9.47 | -4.34 |  |  |  | 
26 | Oc1cc(O)cc(/C=C/c2ccc(O)c(O)c2)c1 [Piceatannol] | -0.69 | 0.733 | -0.567 | 1.1 |  |  |  | 
27 | Cc1ccccc1CN1C(=O)C2=C(CCN(Cc3ccccc3)C2)N2CCN=C12 [TIC10] |  |  |  |  | -0.768 | -0.155 | 0.685 | -0.395
28 | Cn1cnc(N)c2ncnc1-2 [3-Methyladenine] | -0.528 | -0.274 | -0.621 | -0.375 |  |  |  | 
29 | O=C(Nc1ccc(OC(F)(F)F)cc1)c1sccc1NCc1ccnc2ccccc12 [OSI-930] | -0.0551 | -3.67 | -0.971 | -5.53 |  |  |  | 
30 | CN1CCC(c2c(O)cc(O)c3c(=O)cc(-c4ccccc4Cl)oc23)C1CO (stereo not drawn) [P276-00] | -0.748 | -0.274 | -0.275 | -0.359 |  |  |  | 
31 | CN1CCCN(C(=O)c2cccc(-c3ccc(/C=C4/C(=O)Nc5ccc(Cl)cc54)o3)c2)CC1 [CX-6258 HCl] | -1.14 | -0.49 | -1.21 | -0.341 |  |  |  | 
32 | COc1cc(CCc2cc(NC(=O)c3ccc(N4C[C@@H](C)N[C@@H](C)C4)cc3)n[nH]2)cc(OC)c1 [AZD4547] | 0.239 | 0.421 | 0.194 | 0.296 |  |  |  | 
33 | NC1(Cc2ccc(Cl)cc2)CCN(c2ncnc3[nH]ccc23)CC1 [CCT128930] | -0.523 | -0.325 | -1.15 | -0.48 |  |  |  | 
34 | Nc1cccc(-c2cc3c(Oc4cccc(O)c4)ncnc3[nH]2)c1 [TWS119] | -0.75 | -0.00936 | -0.79 | -0.297 |  |  |  | 
35 | Nc1ncnc2c1c(-c1cnc3[nH]ccc3c1)nn2C1CCCC1 [PP121] | -0.595 | -0.369 | -1.06 | -0.432 |  |  |  | 
36 | COc1cc(F)c(F)c(Nc2ccc(I)cc2F)c1NS(=O)(=O)C1(C[C@H](O)CO)CC1 [Refametinib (RDEA119)] | -1.12 | -0.163 | -0.93 | -0.254 |  |  |  | 
